Assay: Average particle diameter of the liposomes in each preparation (Zetasizer Nano ZS)
Type: physicochemical
Details: liposome preparation of Example 118: compound/PEG-DMPE/DSPC/cholesterol with apo-b siRNA
Description: Preparations were produced using the compounds obtained in Examples 1 to 117, as follows.
Anti-APO-B siRNA was used as the nucleic acid. Anti-APO-B siRNA suppresses expression of an apolipoprotein-B (hereinafter, “apo-b”) gene and has a sense strand with the base sequence 5′-GmUCAmUCACACmUGAAmUACCAAmU-3′ (the sugars attached to the bases appended with m are 2′-O-methyl-substituted riboses), and an antisense strand with the base sequence 5′-[…]-3′ (the 5′-end is phosphorylated). The sense strand and the antisense strand were obtained from Nippon EGT or Hokkaido System Science Co., Ltd., and annealed to prepare the nucleic acid (hereinafter, “apo-b siRNA”).
A solution comprising the constituent components of a lipid membrane was prepared by dissolving each of the weighed samples in 90 vol % ethanol in 8.947/1.059/5.708/13.697 mmol/L [compounds 1 to 117 obtained in Examples 1 to 117/1,2-dimyristoyl-sn-glycero-3-phosphoethanolamine-A-(methoxy(polyethylene glycol)-2000) (PEG-DMPE, N-(carbonylmethoxypolyethylene glycol 2000)-1,2-dimyristoyl-sn-glycero-3-phosphoethanolamine sodium salt, NOF Corporation)/distearoylphosphatidyl choline (DSPC, 1,2-distearoyl-sn-glycero-3-phosphocholine, NOF Corporation)/cholesterol (Avanti Polar Lipids)]. Separately, apo-b siRNA/distilled water (24 mg/mL) was diluted with a Tris-EDTA buffer (200 mM Tris-HCl, 20 mM EDTA, Invitrogen) and a 20 mM citric acid buffer (pH 5.0) to prepare a 1.5 mg/mL apo-b siRNA aqueous solution (2 mM Tris-EDTA buffer, pH 5.0).
The resulting lipid solution was heated to 37° C., and a […] portion was transferred to a preparation container. The apo-b siRNA aqueous solution (100 μL) was then added thereto while being stirred. Then, a 20 mM citric acid buffer (containing 300 mM NaCl, pH 6.0; 200 μL) was added to the lipid nucleic acid mixed suspension (200 μL) while being stirred. The siRNA concentration was brought to 10 μM by dropping a Dulbecco phosphate buffer (DPBS, Invitrogen; 662 μL), and preparations (compositions comprising compounds 1 to 117 and the nucleic acid) were obtained.
The average particle diameter of the liposomes in each preparation was measured with a particle diameter measurement device (Malvern; Zetasizer Nano ZS).

Particle diameter of Preparetion [nm]	Compound
148.9	CCCCC/C=C\C/C=C\CCCCCCCCO[C@@H]1CN(CC(C)O)C[C@H]1OCCCCCCCC/C=C\C/C=C\CCCCC (mixture of isomers) [Compound 54, 1-((3R,4R)-3,4-bis((9Z,12Z)-Octadec-9,12-dienyloxy)pyrrolidine-1-yl)propan-2-ol]
129.2	CCCCC/C=C\C/C=C\CCCCCCCCO[C@H]1CN(C)C[C@@H]1OCCCCCCCC/C=C\C/C=C\CCCCC [Compound 50, (3S,4S)-1-Methyl-3,4-bis((9Z,12Z)-octadec-9,12-dienyloxy)pyrrolidine]
139.6	CCCCC/C=C\C/C=C\CCCCCCCCOC1CN(CC(O)COC)C[C@H]1OCCCCCCCC/C=C\C/C=C\CCCCC (stereo partly drawn) [Compound 55, 1-(3R,4R)-3,4-bis(((9Z,12Z)-Octadec-9,12-dienyloxy)pyrrolidine-1-yl)-3-methoxypropan-2-ol]
151.8	CCCCC/C=C\C/C=C\CCCCCCCCOC1CN(CCC(=O)N(C)C)C[C@H]1OCCCCCCCC/C=C\C/C=C\CCCCC (stereo partly drawn) [Compound 58, 3-((3R,4R)-3,4-bis((9Z,12Z)-Octadec-9,12-dienyloxy)pyrrolidin-1-yl)-N,N-dimethyl propanamide]
116.7	CCCCC/C=C\C/C=C\CCCCCCCCOC1CN(CCCN(C)C)C[C@H]1OCCCCCCCC/C=C\C/C=C\CCCCC (stereo partly drawn) [Compound 59, (3R,4R)-1-(3-N,N-Dimethylaminopropyl)-3,4-bis((9Z,12Z)-octadec-9,12-dienyloxy)pyrrolidine]
137.4	CCCCC/C=C\C/C=C\CCCCCCCC(=O)OC1CN(C(=O)[C@@H](N)CCCCN)C[C@H]1OC(=O)CCCCCCC/C=C\C/C=C\CCCCC (stereo partly drawn) [Compound 66, (3R,4R)-1-((S)-2,6-Diaminohexanoyl)pyrrolidine-3,4-diyl di((9Z,12Z)-octadec-9,12-enoate)]
152.8	CCCCC/C=C\C/C=C\CCCCCCCCCCOCC1CN(C(=O)[C@@H](N)CCCCN)C[C@H]1COCCCCCCCCCC/C=C\C/C=C\CCCCC (stereo partly drawn) [Compound 115, trans-1-((S)-2,6-Diaminohexanoyl)-3,4-bis(((11Z,14Z)-icos-11,14-dienyloxy)methyl) pyrrolidine]

Second part, the molecule before the results:

Compound	Particle diameter of Preparetion [nm]
CCCCC/C=C\C/C=C\CCCCCCCCO[C@H]1CNC[C@@H]1OCCCCCCCC/C=C\C/C=C\CCCCC [Compound 43, (3S,4S)-3,4-bis((9Z,12Z)-Octadec-9,12-dienyloxy)pyrrolidine]	150.0
CCCCC/C=C\C/C=C\CCCCCCCC(=O)OC1CN(CC(O)CO)C[C@H]1OC(=O)CCCCCCC/C=C\C/C=C\CCCCC (stereo partly drawn) [Compound 53, (3R,4R)-1-(2,3-diHydroxypropyl)pyrrolidine-3,4-diyl di((9Z,12Z)-octadec-9,12-enoate)]	152.4
CCCCC/C=C\C/C=C\CCCCCCCC(=O)OC1CN(C(=O)CN)C[C@H]1OC(=O)CCCCCCC/C=C\C/C=C\CCCCC (stereo partly drawn) [Compound 65, (3R,4R)-1-(2-aminoacetyl)pyrrolidine-3,4-diyl di((9Z,12Z)-octadec-9,12-enoate)]	128.9

Same assay, conditions: preparations of Comparative Examples 1 to 8, made as in Example 118 with apo-b siRNA

average particle diameter of the liposomes in the preparation [nm]	Compound
141.0	CCCCC/C=C\C/C=C\CCCCCCCC(=O)O[C@@H]1CN(C)C[C@H]1OC(=O)CCCCCCC/C=C\C/C=C\CCCCC [Compound A-3, (3R,4R)-1-Methylpyrrolidine-3,4-diyl di((9Z,12Z)-octadec-9,12-dienoate), reference compound]
131.1	CCCCCCCC/C=C\CCCCCCCC(=O)O[C@@H]1CN(C)C[C@H]1OC(=O)CCCCCCC/C=C\CCCCCCCC [Compound A-4, (3R,4R)-1-Methylpyrrolidine-3,4-diyl di((Z)-octadec-9-enoate), reference compound]
136.4	CCCCC/C=C\C/C=C\CCCCCCCC(=O)OCCN(C)CCOC(=O)CCCCCCC/C=C\C/C=C\CCCCC [Compound A-5, N-Methyl-N,N-bis(2-((9Z,12Z)-1-oxooctadec-9,12-dienyloxy)ethyl)amine, reference compound]
139.5	CCCCCCCC/C=C\CCCCCCCC(=O)OCCN(C)CCOC(=O)CCCCCCC/C=C\CCCCCCCC [Compound A-6, N-Methyl-N,N-bis(2-((Z)-1-oxooctadec-9-enyloxy)ethyl)amine, reference compound]
167.8	CCCCC/C=C\C/C=C\CCCCCCCCO[C@@H]1CN(Cc2ccccc2)C[C@H]1OCCCCCCCC/C=C\C/C=C\CCCCC [Compound VI-3, (3R,4R)-1-Benzyl-3,4-bis((9Z,12Z)-octadec-9,12-dienyloxy)pyrrolidine, reference compound]
157.8	CCCCCCCC/C=C\CCCCCCCCO[C@@H]1CN(Cc2ccccc2)C[C@H]1OCCCCCCCC/C=C\CCCCCCCC [Compound VI-4, (3R,4R)-1-Benzyl-3,4-bis((Z)-octadec-9-enyloxy)pyrrolidine, reference compound]

Compound	average particle diameter of the liposomes in the preparation [nm]
CCCCCCCC/C=C\CCCCCCCC(=O)OCC(C[N+](C)(C)C)OC(=O)CCCCCCC/C=C\CCCCCCCC.[Cl-] (centres unmarked) [DOTAP, N-(2,3-di-(9-(Z)-octadecenoyloxy))-prop-1-yl-N,N,N-trimethylammonium chloride, reference compound]	104.0

— patent US9845306B2, “Cationic lipid” (Kyowa Hakko Kirin Co., Ltd., priority 2010, dated 2017)
